Experiment [1] has as its target T1, Short transient receptor potential channel 5 (Homo sapiens, UniProt Q9UL62).
T1 sequence (Q9UL62 whole entry): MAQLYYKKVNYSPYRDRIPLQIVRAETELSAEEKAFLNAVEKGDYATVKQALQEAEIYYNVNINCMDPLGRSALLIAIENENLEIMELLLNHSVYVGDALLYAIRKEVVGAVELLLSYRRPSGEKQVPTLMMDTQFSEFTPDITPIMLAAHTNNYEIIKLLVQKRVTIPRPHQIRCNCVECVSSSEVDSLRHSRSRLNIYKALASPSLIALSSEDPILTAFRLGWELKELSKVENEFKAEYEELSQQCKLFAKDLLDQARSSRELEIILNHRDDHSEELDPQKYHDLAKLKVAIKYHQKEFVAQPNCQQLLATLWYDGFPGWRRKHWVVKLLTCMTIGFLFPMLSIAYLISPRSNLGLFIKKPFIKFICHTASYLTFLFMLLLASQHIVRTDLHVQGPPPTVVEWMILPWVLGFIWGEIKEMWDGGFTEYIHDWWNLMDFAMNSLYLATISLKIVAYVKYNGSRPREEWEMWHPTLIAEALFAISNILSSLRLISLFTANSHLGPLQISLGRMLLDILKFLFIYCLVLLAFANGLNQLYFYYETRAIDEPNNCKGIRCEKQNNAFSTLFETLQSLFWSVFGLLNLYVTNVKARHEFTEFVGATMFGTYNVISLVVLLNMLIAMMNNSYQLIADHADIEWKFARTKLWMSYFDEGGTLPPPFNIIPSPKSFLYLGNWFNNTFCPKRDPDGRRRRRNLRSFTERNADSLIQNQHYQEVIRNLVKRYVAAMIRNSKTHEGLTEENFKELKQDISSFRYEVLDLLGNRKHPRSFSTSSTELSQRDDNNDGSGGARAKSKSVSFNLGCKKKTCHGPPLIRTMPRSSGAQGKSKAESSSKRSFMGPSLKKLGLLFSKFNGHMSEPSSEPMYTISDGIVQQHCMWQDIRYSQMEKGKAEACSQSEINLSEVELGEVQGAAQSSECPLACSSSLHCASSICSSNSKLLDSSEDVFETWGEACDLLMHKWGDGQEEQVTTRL
The experiment is described as follows: Inhibition of human TRPC5 channel expressed in HEK293 cells assessed as inhibition of EA-evoked Calcium influx by measuring reduction in intracellular Ca2+ level and measured upto 360 sec by Fluo-4/AM dye based FLIPR assay. The class given is cell-based.

Experiment [2] has as its target T2, Short transient receptor potential channel 4 (Homo sapiens, UniProt Q9UBN4).
T2 sequence (Q9UBN4 whole entry): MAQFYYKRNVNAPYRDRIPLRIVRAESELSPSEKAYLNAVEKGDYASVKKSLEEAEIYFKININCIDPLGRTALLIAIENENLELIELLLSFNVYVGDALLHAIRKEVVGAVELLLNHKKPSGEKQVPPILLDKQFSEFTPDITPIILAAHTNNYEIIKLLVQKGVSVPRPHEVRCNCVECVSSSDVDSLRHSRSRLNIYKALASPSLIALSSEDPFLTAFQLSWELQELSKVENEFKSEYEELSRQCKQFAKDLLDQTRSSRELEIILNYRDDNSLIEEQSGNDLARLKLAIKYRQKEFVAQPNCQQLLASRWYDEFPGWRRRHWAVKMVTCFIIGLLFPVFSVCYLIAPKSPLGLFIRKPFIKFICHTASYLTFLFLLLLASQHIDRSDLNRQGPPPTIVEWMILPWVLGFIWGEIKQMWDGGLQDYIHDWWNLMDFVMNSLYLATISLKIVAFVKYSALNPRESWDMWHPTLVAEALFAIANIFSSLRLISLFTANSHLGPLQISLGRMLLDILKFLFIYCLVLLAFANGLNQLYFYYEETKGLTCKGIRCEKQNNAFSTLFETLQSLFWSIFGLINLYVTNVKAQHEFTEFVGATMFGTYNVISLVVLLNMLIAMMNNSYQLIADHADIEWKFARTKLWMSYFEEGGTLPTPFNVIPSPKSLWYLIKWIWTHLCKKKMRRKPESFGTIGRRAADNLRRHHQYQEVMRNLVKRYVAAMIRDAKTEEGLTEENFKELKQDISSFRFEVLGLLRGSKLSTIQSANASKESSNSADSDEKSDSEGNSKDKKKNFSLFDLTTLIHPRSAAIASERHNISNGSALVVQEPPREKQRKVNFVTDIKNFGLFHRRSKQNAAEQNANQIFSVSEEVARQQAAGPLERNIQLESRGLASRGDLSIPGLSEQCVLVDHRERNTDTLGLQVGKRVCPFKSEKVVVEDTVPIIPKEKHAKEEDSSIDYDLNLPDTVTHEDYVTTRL
The experiment is described as follows: Inhibition of human TRPC4 channel expressed in HEK293 cells assessed as inhibition of EA-evoked Calcium influx by measuring reduction in intracellular Ca2+ level and measured upto 360 sec by Fluo-4/AM dye based FLIPR assay. The class given is cell-based.

Experiment [3] relates to HaCaT. The experiment is described as follows: Inhibition of IL-17 induced inflammation in human HaCaT cells assessed as reduction in IL-8 mRNA level at 0.3 to 3 uM by qRT-PCR analysis. The class given is functional, cell-based. The following applies: dose 0.3-3 µM. A general note: In qPCR the cycle at which signal appears reflects the starting amount.
Experiment [4] concerns HaCaT. The experiment is described as follows: Inhibition of IL-17 induced cell proliferation in human HaCaT cells assessed as decrease in BrdU positive (BrdU+) cells at 0.3 to 3 uM and measured after 24 hrs by BrdU incorporation assay. The class given is functional, cell-based. The following applies: dose 0.3-3 µM.
The test system of experiment [5] is HaCaT. The experiment is described as follows: Inhibition of IL-17 induced inflammation in human HaCaT cells assessed as reduction in CCL-20 mRNA level at 0.3 to 3 uM by qRT-PCR analysis. The following applies: dose 0.3-3 µM. The class given is functional, cell-based.
The subject of experiment [6] is HaCaT. The experiment is described as follows: Inhibition of IL-17 induced inflammation in human HaCaT cells assessed as reduction in IL-6 mRNA level at 0.3 to 3 uM by qRT-PCR analysis. The class given is functional, cell-based. The conditions noted are these: dose 0.3-3 µM.
Experiment [7] relates to MPC-5. The experiment is described as follows: Protective effect against protamine sulfate induced cytoskeleton rearrangement in mouse MPC-5 cell assessed as reduction in aggregated stress fibers at 1 to 3 uM pretreatment followed by PS stimulation and measured after 2 hrs by phalloidin and Hoechst 33342 staining based fluorescence analysis. The class given is functional. The conditions noted are these: dose 1-3 µM.

Experiment [8] relates to HaCaT. The experiment is described as follows: Inhibition of IL-17 induced cell proliferation in human HaCaT cells assessed as decrease in BrdU positive (BrdU+) cells at 10 uM and measured after 24 hrs by BrdU incorporation assay. Format: functional, cell-based.
In experiment [9] the test system is MPC-5. The experiment is described as follows: Protective effect against protamine sulfate induced cytoskeleton rearrangement in mouse MPC-5 cell assessed as reduction in aggregated stress fibers at 10 uM pretreatment followed by PS stimulation and measured after 2 hrs by phalloidin and Hoechst 33342 staining based fluorescence analysis. Format: functional.

Calls of active or inactive are those of the source. The calls are words filed in the database; no cut-off is given here.

Consider `CCc1ccc2c(c1)nc(NCCc1ccncc1)n2Cc1ccccc1`, for which the IC50 (in general, the point on the concentration scale where inhibition reaches its midpoint) in [1] was 2950 nM.
Still for that read-out and setting: the figure for `CCc1ccc2c(c1)nc(NCc1ccc(C)o1)n2Cc1ccccc1` is 2930 nM; for `CC(C)c1ccc2c(c1)nc(NCc1ccco1)n2Cc1ccccc1` it is 570 nM.
Same read-out and setting: under `CCc1ccc2c(c1)nc(N1CC3(COC3)C1)n2Cc1ccccc1` stands greater than 10000 nM; under `CCc1ccc2c(c1)nc(NCc1ccco1)n2Cc1ccccc1C(F)(F)F`, greater than 10000 nM; under `CCc1ccc2c(c1)nc(NCc1ccco1)n2Cc1ccc(F)cc1`, 960 nM.
Same read-out and setting: under `Oc1ccc2c(c1)nc(NCc1ccco1)n2Cc1ccccc1` stands greater than 10000 nM.
With `CCc1ccc(Cn2c(NCc3ccco3)nc3cc(CC)ccc32)cc1`, the IC50 in experiment [1] worked out at 2300 nM.
Turning to `CCc1ccc2c(c1)nc(NCc1ccco1)n2Cc1ccc(OC(F)(F)F)cc1`, in experiment [1], the IC50 turned out to be 920 nM.
The same measure, in the same setting: the figure for `C=Cc1ccc2c(c1)nc(NCc1ccco1)n2Cc1ccccc1` is greater than 10000 nM.
On the same count and under the same terms, the figure for `CCc1ccc2c(c1)nc(N1CC3CCC(C1)O3)n2Cc1ccccc1` is greater than 10000 nM; for `c1ccc(Cn2c(NCc3ccco3)nc3cc(C4CC4)ccc32)cc1` it is 820 nM.
Still for that read-out and setting: under `CCc1ccc2c(c1)nc(NCC1CCOC1)n2Cc1ccccc1` (stereo not given) stands 2270 nM.
Turning to `CCc1ccc2c(c1)nc(NCc1ccco1)n2Cc1ccc(C)cc1`, in experiment [1], the IC50 was found to be 4630 nM.
On to `CCc1ccc2c(c1)nc(NCc1ccc(C#N)o1)n2Cc1ccccc1`, for which the IC50 in experiment [1] is greater than 10000 nM.
With `CCc1ccc2c(c1)nc(NCc1ccccn1)n2Cc1ccccc1`, in experiment [1], the IC50 amounted to 3130 nM.
Still for that read-out and setting: the figure for `CCc1ccc2c(c1)nc(N1CCN(C)CC1)n2Cc1ccccc1` is greater than 10000 nM; for `CCc1ccc2c(c1)nc(NCCN1CCCCC1)n2Cc1ccccc1` it is 3350 nM; for `CCc1ccc2c(c1)nc(NCC1CCCO1)n2Cc1ccccc1` (stereo not given) it is 1820 nM.
Same read-out and setting: under `CCc1ccc2c(c1)nc(N1CCOCC1)n2Cc1ccccc1` stands greater than 10000 nM.
The same measure, in the same setting: under `CCc1ccc2c(c1)nc(NCc1ccco1)n2Cc1ccc(C(F)(F)F)cc1` stands 1350 nM; under `CCc1ccc2c(c1)nc(NCc1ccc(Cl)o1)n2Cc1ccccc1`, 2210 nM; under `CCc1ccc2c(c1)nc(NCCN1CCOCC1)n2Cc1ccccc1`, 2640 nM.
Regarding `CCc1ccc2c(c1)nc(NCc1ccco1)n2Cc1ccccc1`, the half-inhibitory concentration (IC50) was found to be 2060 nM in experiment [2] and 540 nM in experiment [1]. The inhibition entry in the experiment with HaCaT [3], in the experiment on HaCaT [4], in the experiment with HaCaT [5] and with HaCaT [6] was “Active” each time. Further, the outcome with MPC-5 [7] was Active.
In the case of `c1ccc(Cn2c(NCc3ccco3)nc3ccccc32)cc1`, the results for the IC50 in [2] and in experiment [1] were 77200 nM and 65000 nM, respectively. Also, the inhibition entry in the experiment with HaCaT [8] is “Active”. Moreover, in the experiment on MPC-5 [9], the result was Active.
With `CCc1ccc2c(c1)nc(N1CCC(C)CC1)n2Cc1ccccc1`, in experiment [1], the IC50 was greater than 10000 nM.
The same measure, in the same setting: the figure for `CCCc1ccc2c(c1)nc(NCc1ccco1)n2Cc1ccccc1` is 1340 nM; for `C#Cc1ccc2c(c1)nc(NCc1ccco1)n2Cc1ccccc1` it is greater than 10000 nM.
On the same count and under the same terms, the figure for `CCc1ccc2c(c1)nc(NCc1cccs1)n2Cc1ccccc1` is 2410 nM; for `Cc1ccc2c(c1)nc(NCc1ccco1)n2Cc1ccccc1` it is 670 nM.
On the same count and under the same terms, the figure for `CCc1ccc2c(c1)nc(NCc1ccco1)n2Cc1ccc(OC)cc1` is 2210 nM; for `CCc1ccc2c(c1)nc(NCc1ccco1)n2Cc1cccc(C(F)(F)F)c1` it is 2240 nM; for `CCc1ccc2c(c1)nc(NCCc1ccco1)n2Cc1ccccc1` it is 1020 nM.
Take `CCc1ccc2c(c1)nc(N1CCC3(CCCO3)CC1)n2Cc1ccccc1`: the IC50 in experiment [1] was greater than 10000 nM.
Still for that read-out and setting: the figure for `CCc1ccc2nc(NCc3ccco3)n(Cc3ccccc3)c2c1` is greater than 10000 nM; for `Cc1ccc2nc(NCc3ccco3)n(Cc3ccccc3)c2c1` it is greater than 10000 nM.
